Data set [1] is described as follows: In vitro stability in rat plasma. The format is in vitro ADME. On the procedure: (§1) Apelin peptides were spiked into rat plasma, liver homogenate, and kidney homogenate, which were obtained from commercial sources, to a final concentration of 5 μM. The samples were then incubated at 37° C. over a period of 4 hr. […] In a typical experiment, an aliquot of 100 μL of sample was taken from the incubation vial, followed by addition of 300 μL of MeOH containing internal standard. The quenched sample was centrifuged at 5500 g for 15 min after 15 min vortex in room temperature. The supernatant was then analyzed by high resolution LC-MS. […] In vitro plasma, […], and kidney stability results are shown below in Table 14.

Data set [2] is described as follows: In vitro stability in rat liver homogenate. The format is in vitro ADME. The note with it: tissue homogenate. On the procedure: as §1

Starred links: 1 amine or outer side, 2 acyl side, 3 side chain; linkers in the order of their positions; H or OH if unused. Non-standard residues stand in square brackets, D forms with d. Residues, ends and D or L forms follow the SMILES beside them. *: point of attachment. Phe(4-Cl) = N[C@@H](Cc1ccc(Cl)cc1)C(=O)O; γGlu = O=C(O)[C@H](CCC(=O)[*:2])N[*:1]; 2Nal = N[C@@H](Cc1ccc2ccccc2c1)C(=O)O; NMeR = CN[C@@H](CCCNC(=N)N)C(=O)O; Tridecanoyl = CCCCCCCCCCCCC(=O)*; hArg = N=C(N)NCCCC[C@H](N)C(=O)O; Cha = N[C@@H](CC1CCCCC1)C(=O)O; αMeL = CC(C)C[C@](C)(N)C(=O)O; β3hV = CC(C)[C@H](N)CC(=O)O; Nle = CCCC[C@H](N)C(=O)O; AEEA = NCCOCCOCC(=O)O; βAla = NCCC(=O)O Where only a bound is given, the exact number is not on record here.

As for `CCCCCCCCCCCCC(=O)N[C@@H](CCC(=O)NCCOCCOCC(=O)NCCOCCOCC(=O)N[C@@H](CCC(N)=O)C(=O)N[C@@H](CCCCNC(=N)N)C(=O)N1CCC[C@H]1C(=O)N[C@@H](CCCCNC(=N)N)C(=O)N[C@@H](CC(C)C)C(=O)N[C@@H](CO)C(=O)N[C@@H](Cc1c[nH]cn1)C(=O)N[C@@H](CCCCN)C(=O)NCC(=O)N1CCC[C@H]1C(=O)N[C@@H](CCCC)C(=O)N1CCC[C@H]1C(=O)N[C@@H](Cc1ccc(Cl)cc1)C(=O)O)C(=O)O` [compound 357], the share remaining at 4 h, 5 μM in data set [1] is 56%; in data set [2], 0%. With `CCCCCCCCCCCCC(=O)N[C@@H](CCC(=O)NCCOCCOCC(=O)NCCOCCOCC(=O)N[C@@H](CCC(N)=O)C(=O)N[C@@H](CCCNC(=N)N)C(=O)N1CCC[C@H]1C(=O)N(C)[C@@H](CCCNC(=N)N)C(=O)N[C@@H](CC(C)C)C(=O)N[C@@H](CO)C(=O)N[C@@H](Cc1c[nH]cn1)C(=O)N[C@@H](CCCCN)C(=O)NCC(=O)N1CCC[C@H]1C(=O)N[C@@H](CCCC)C(=O)N1CCC[C@H]1CC(=O)N[C@@H](Cc1ccc(Cl)cc1)C(=O)O)C(=O)O` [compound 426], the share remaining at 4 h, 5 μM in data set [1] was 33%; in data set [2], below 1%. On the same counts, the results for `CCCCCCCCCCCCC(=O)N[C@@H](CCC(=O)NCCOCCOCC(=O)NCCOCCOCC(=O)N[C@@H](CCC(N)=O)C(=O)N[C@@H](CCCNC(=N)N)C(=O)N1CCC[C@H]1C(=O)N(C)[C@@H](CCCNC(=N)N)C(=O)N[C@@](C)(CC(C)C)C(=O)N[C@@H](CO)C(=O)N[C@@H](Cc1c[nH]cn1)C(=O)N[C@@H](CCCCN)C(=O)NCC(=O)N1CCC[C@H]1C(=O)N[C@@H](CCCC)C(=O)N1CCC[C@H]1C(=O)N[C@@H](Cc1ccc(Cl)cc1)C(=O)O)C(=O)O` [compound 457] are 62% and below 1%. On the same counts, the results for `CSCC[C@H](NC(=O)[C@@H](N)CS)C(=O)N1CCC[C@H]1C(=O)N[C@@H](CC(C)C)C(=O)N[C@@H](Cc1cnc[nH]1)C(=O)N[C@@H](CO)C(=O)N[C@@H](CCCNC(=N)N)C(=O)N[C@H](C(=O)N1CCC[C@H]1C(=O)N[C@@H](Cc1ccccc1)C(=O)N1CCC[C@H]1C(=O)O)C(C)C` [compound 13] are 7% and below 1%.

For the compound `CCCCCCCCCCCCC(=O)N[C@@H](CCC(=O)NCCOCCOCC(=O)NCCOCCOCC(=O)N[C@@H](CCC(N)=O)C(=O)N[C@@H](CCCNC(=N)N)C(=O)N1CCC[C@H]1C(=O)N(C)[C@@H](CCCNC(=N)N)C(=O)N[C@@H](CC(C)C)C(=O)NCCC(=O)N[C@@H](Cc1c[nH]cn1)C(=O)N[C@@H](CCCCN)C(=O)NCC(=O)N1CCC[C@H]1C(=O)N[C@@H](CCCC)C(=O)N1CCC[C@H]1C(=O)N[C@@H](Cc1ccc(Cl)cc1)C(=O)O)C(=O)O` [compound 464] ({Tridecanoyl-γGlu-AEEA-AEEA}-QRP[NMeR]L[βAla]HKGP[Nle]P[Phe(4-Cl)]-OH), the figures for the share remaining at 4 h, 5 μM in data set [1] and in data set [2] were 21% and below 1%, respectively.

`CCCC[C@H](NC(=O)[C@@H]1CCCN1C(=O)CNC(=O)[C@H](CCCCN)NC(=O)[C@H](Cc1c[nH]cn1)NC(=O)[C@H](CO)NC(=O)[C@H](CC1CCCCC1)NC(=O)[C@H](CCCNC(=N)N)N(C)C(=O)[C@@H]1CCCN1C(=O)[C@H](CCCNC(=N)N)NC(=O)[C@H](CCC(N)=O)NC(=O)[C@H](CCCNC(=N)N)NC(C)=O)C(=O)N1CCC[C@H]1C(=O)N[C@@H](Cc1ccc(Cl)cc1)C(=O)O` [compound 66] (Ac-RQRP[NMeR][Cha]SHKGP[Nle]P[Phe(4-Cl)]-OH): the fraction remaining at 4 h, 5 μM in data set [1] amounted to 2.4%.

`CCCCCCCCCCCCC(=O)N[C@@H](CCC(=O)NCCOCCOCC(=O)NCCOCCOCC(=O)N[C@@H](CCC(N)=O)C(=O)N[C@@H](CCCNC(=N)N)C(=O)N1CCC[C@@]1(C)C(=O)N[C@@H](CCCCNC(=N)N)C(=O)N[C@@](C)(CC(C)C)C(=O)N[C@@H](CO)C(=O)N[C@@H](Cc1c[nH]cn1)C(=O)N[C@@H](CCCCN)C(=O)NCC(=O)N1CCC[C@H]1C(=O)N[C@@H](CCCC)C(=O)N1CCC[C@H]1C(=O)N[C@@H](Cc1ccc(Cl)cc1)C(=O)O)C(=O)O` [compound 482]: the fraction remaining at 4 h, 5 μM in data set [1] is 62%; in data set [2], below 1%. Take `CCCCCCCCCCCCC(=O)N[C@@H](CCC(=O)NCCOCCOCC(=O)NCCOCCOCC(=O)N[C@@H](CCC(N)=O)C(=O)N[C@H](CCCNC(=N)N)C(=O)N1CCC[C@H]1C(=O)N(C)[C@@H](CCCCNC(=N)N)C(=O)NC(CC(=O)N[C@@H](CO)C(=O)N[C@@H](Cc1c[nH]cn1)C(=O)N[C@@H](CCCCN)C(=O)NCC(=O)N1CCC[C@H]1C(=O)N[C@@H](CCCC)C(=O)N1CCC[C@H]1C(=O)N[C@@H](Cc1ccc(Cl)cc1)C(=O)O)C(C)C)C(=O)O` (stereo partly shown) [compound 384]: the share remaining at 4 h, 5 μM is 25% in data set [1] and below 1% in data set [2]. Taken in the same sequence, the figures for `CCCCCCCCCCCCC(=O)N[C@@H](CCC(=O)NCCOCCOCC(=O)NCCOCCOCC(=O)N[C@@H](CCC(N)=O)C(=O)N[C@@H](CCCNC(=N)N)C(=O)N1CCC[C@H]1C(=O)N(C)[C@@H](CCCNC(=N)N)C(=O)N[C@@H](CC(C)C)C(=O)N[C@@H](CO)C(=O)N[C@@H](Cc1c[nH]cn1)C(=O)N[C@@H](CCCCN)C(=O)NCC(=O)N1CCC[C@H]1C(=O)N[C@@H](CCCC)C(=O)NCCC(=O)N[C@@H](Cc1ccc(Cl)cc1)C(=O)O)C(=O)O` [compound 425] ({Tridecanoyl-γGlu-AEEA-AEEA}-QRP[NMeR]LSHKGP[Nle][βAla][Phe(4-Cl)]-OH) were above 90% and below 1%. For the compound `CCCCCCCCCCCCC(=O)N[C@@H](CCC(=O)NCCOCCOCC(=O)NCCOCCOCC(=O)N[C@@H](CCC(N)=O)C(=O)N[C@@H](CCCCNC(=N)N)C(=O)N1CCC[C@H]1C(=O)N(C)[C@@H](CCCNC(=N)N)C(=O)N[C@@H](CC(C)C)C(=O)N[C@@H](CO)C(=O)N[C@@H](Cc1c[nH]cn1)C(=O)N[C@@H](CCCCN)C(=O)NCC(=O)N1CCC[C@H]1C(=O)N[C@@H](CCCC)C(=O)N1CCC[C@H]1C(=O)N[C@@H](Cc1ccc(Cl)cc1)C(=O)O)C(=O)O` [compound 353], the fraction remaining at 4 h, 5 μM in data set [1] is 20%; in data set [2], 0%. On the same counts, the results for `CCCCCCCCCCCCC(=O)N[C@@H](CCC(=O)NCCOCCOCC(=O)NCCOCCOCC(=O)N[C@@H](CCC(N)=O)C(=O)N[C@H](CCCNC(=N)N)C(=O)N1CCC[C@H]1C(=O)N[C@@H](CCCCNC(=N)N)C(=O)N[C@@](C)(CC(C)C)C(=O)N[C@@H](CO)C(=O)N[C@@H](Cc1c[nH]cn1)C(=O)N[C@@H](CCCCN)C(=O)NCC(=O)N1CCC[C@H]1C(=O)N[C@@H](CCCC)C(=O)N1CCC[C@H]1C(=O)N[C@@H](Cc1ccc(Cl)cc1)C(=O)O)C(=O)O` [compound 485] are 74% and below 1%. On the same counts, the results for `CCCC[C@H](NC(=O)[C@@H]1CCCN1C(=O)CNC(=O)[C@H](CCCCN)NC(=O)[C@H](Cc1c[nH]cn1)NC(=O)[C@H](CO)NC(=O)[C@H](CC(C)C)NC(=O)[C@H](CCCNC(=N)N)N(C)C(=O)[C@@H]1CCCN1C(=O)[C@H](CCCNC(=N)N)NC(=O)[C@H](CCC(N)=O)NC(=O)COCCOCCNC(=O)COCCOCCNC(=O)CC[C@H](NC(=O)CCCCCCC(=O)O)C(=O)O)C(=O)N1CCC[C@H]1C(=O)N[C@@H](Cc1ccc(Cl)cc1)C(=O)O` [compound 508] are below 1% and below 1%. On the same counts, the results for `CCCCCCCCCCCCC(=O)N[C@@H](CCC(=O)NCCOCCOCC(=O)NCCOCCOCC(=O)N[C@@H](CCC(N)=O)C(=O)N[C@@H](CCCCNC(=N)N)C(=O)N1CCC[C@H]1C(=O)N(C)[C@@H](CCCNC(=N)N)C(=O)N[C@H](CC(=O)N[C@@H](CO)C(=O)N[C@@H](Cc1c[nH]cn1)C(=O)N[C@@H](CCCCN)C(=O)NCC(=O)N1CCC[C@H]1C(=O)N[C@@H](CCCC)C(=O)N1CCC[C@H]1C(=O)N[C@@H](Cc1ccc(Cl)cc1)C(=O)O)C(C)C)C(=O)O` [compound 383] ({Tridecanoyl-γGlu-AEEA-AEEA}-Q[hArg]P[NMeR][β3hV]SHKGP[Nle]P[Phe(4-Cl)]-OH) are 31% and below 1%. For the compound `CCCCCCCCCCCCC(=O)N[C@@H](CCC(=O)NCCOCCOCC(=O)NCCOCCOCC(=O)N[C@@H](CCC(N)=O)C(=O)N[C@@H](CCCCNC(=N)N)C(=O)N1CCC[C@H]1C(=O)N(C)[C@@H](CCCNC(=N)N)C(=O)N[C@@](C)(CC(C)C)C(=O)N[C@@H](CO)C(=O)N[C@@H](Cc1c[nH]cn1)C(=O)N[C@@H](CCCCN)C(=O)NCC(=O)N1CCC[C@H]1C(=O)N[C@@H](CCCC)C(=O)N1CCC[C@H]1C(=O)N[C@@H](Cc1ccc2ccccc2c1)C(=O)O)C(=O)O` [compound 473] ({Tridecanoyl-γGlu-AEEA-AEEA}-Q[hArg]P[NMeR][αMeL]SHKGP[Nle]P[2Nal]-OH), the share remaining at 4 h, 5 μM was 82% in data set [1] and below 1% in data set [2]. On the same counts, the results for `CCCCCCCCCCCCC(=O)N[C@@H](CCC(=O)NCCOCCOCC(=O)NCCOCCOCC(=O)N[C@@H](CCC(N)=O)C(=O)N[C@@H](CCCCNC(=N)N)C(=O)N1CCC[C@H]1C(=O)N(C)[C@@H](CCCCNC(=N)N)C(=O)N[C@@H](CC(C)C)C(=O)N[C@@H](CO)C(=O)N[C@@H](Cc1c[nH]cn1)C(=O)N[C@@H](CCCCN)C(=O)NCC(=O)N1CCC[C@H]1C(=O)N[C@@H](CCCC)C(=O)N1CCC[C@H]1C(=O)N[C@@H](Cc1ccc(Cl)cc1)C(=O)O)C(=O)O` [compound 483] are 37% and below 1%. In the case of `CCCCCCCCCCCCC(=O)N[C@@H](CCC(=O)NCCOCCOCC(=O)NCCOCCOCC(=O)N[C@@H](CCC(N)=O)C(=O)N[C@@H](CCCNC(=N)N)C(=O)N1CCC[C@H]1C(=O)N[C@@H](CCCCNC(=N)N)C(=O)N[C@@H](CC(C)C)C(=O)N[C@@H](CO)C(=O)N[C@@H](Cc1c[nH]cn1)C(=O)N[C@@H](CCCCN)C(=O)NCC(=O)N1CCC[C@H]1C(=O)N[C@@H](CCCC)C(=O)N1CCC[C@H]1C(=O)N[C@@H](Cc1ccc(Cl)cc1)C(=O)O)C(=O)O` [compound 355], the amount remaining at 4 h, 5 μM was 64% in data set [1] and 0% in data set [2].
